Measured values taken from patent US9346809B2 (LEO PHARMA A/S, priority 2009, dated 2016).

Legend:
Format in all cases: biochemical
[1] = molecular target: T1, JAK1 (aa 850-1154, catalytic domain, GST-tag) (Homo sapiens, UniProt P23458); test: JAK kinase assay (HTRF, phosphorylation of TK substrate-biotin), JAK1; conditions: HTRF assay, ATP at Km (7 μM); read-out: JAK1 kinase inhibitory activity (EC50 indicator)
T1 construct: JAK1 (aa 850-1154) and TYK2 (aa 871-1187) are expressed with an N-terminally fused GST-tag; GST (N); purchased Carna Biosciences, Inc; host or cells: baculovirus expression system
T1 sequence (P23458 850-1154): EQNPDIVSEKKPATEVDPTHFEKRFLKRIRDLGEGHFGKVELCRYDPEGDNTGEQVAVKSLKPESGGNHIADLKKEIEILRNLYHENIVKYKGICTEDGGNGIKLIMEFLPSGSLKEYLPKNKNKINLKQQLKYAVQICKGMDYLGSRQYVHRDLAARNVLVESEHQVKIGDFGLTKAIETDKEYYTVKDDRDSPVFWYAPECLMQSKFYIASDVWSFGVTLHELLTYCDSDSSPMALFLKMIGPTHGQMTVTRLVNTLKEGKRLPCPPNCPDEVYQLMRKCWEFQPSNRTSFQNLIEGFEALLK
How it was run: (§1)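 HTRF KinEASE TK format; 1 μM biotinylated peptide, Km ATP: 7 μM (JAK1, 10 mM MgCl2, 50 nM SEB), 4 μM (JAK2), 2 μM (JAK3), 13 μM (TYK2, 50 nM SEB); 5 mM MgCl2 for the latter three. RT 20-30 min, 0.75% DMSO final. Overnight detection, EC50.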

[2] = molecular target: T2, JAK2 (catalytic domain, His-tag) (Homo sapiens, UniProt O60674); test: JAK kinase assay (HTRF, phosphorylation of TK substrate-biotin), JAK2; conditions: HTRF assay, ATP at Km (4 μM); read-out: JAK2 kinase inhibitory activity (EC50 indicator)
T2 construct: All four purified enzymes contain only the catalytic domain; His (N); purchased Carna Biosciences, Inc; host or cells: baculovirus expression system
T2 sequence (O60674 849-1124 limits assumed): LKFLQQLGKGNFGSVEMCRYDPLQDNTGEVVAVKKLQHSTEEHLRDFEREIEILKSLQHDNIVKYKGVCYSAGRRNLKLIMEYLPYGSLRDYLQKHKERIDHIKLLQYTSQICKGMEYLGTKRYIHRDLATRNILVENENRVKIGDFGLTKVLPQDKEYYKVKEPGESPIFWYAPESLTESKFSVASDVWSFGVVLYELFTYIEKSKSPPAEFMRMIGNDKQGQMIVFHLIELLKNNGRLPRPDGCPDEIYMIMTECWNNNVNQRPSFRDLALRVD
How it was run: as §1

[3] = molecular target: T3, JAK3 (catalytic domain, His-tag) (Homo sapiens, UniProt P52333); test: JAK kinase assay (HTRF, phosphorylation of TK substrate-biotin), JAK3; conditions: HTRF assay, ATP at Km (2 μM); read-out: JAK3 kinase inhibitory activity (EC50 indicator)
T3 construct: All four purified enzymes contain only the catalytic domain; His (N); purchased Carna Biosciences, Inc; host or cells: baculovirus expression system
T3 sequence (P52333 822-1111 limits assumed): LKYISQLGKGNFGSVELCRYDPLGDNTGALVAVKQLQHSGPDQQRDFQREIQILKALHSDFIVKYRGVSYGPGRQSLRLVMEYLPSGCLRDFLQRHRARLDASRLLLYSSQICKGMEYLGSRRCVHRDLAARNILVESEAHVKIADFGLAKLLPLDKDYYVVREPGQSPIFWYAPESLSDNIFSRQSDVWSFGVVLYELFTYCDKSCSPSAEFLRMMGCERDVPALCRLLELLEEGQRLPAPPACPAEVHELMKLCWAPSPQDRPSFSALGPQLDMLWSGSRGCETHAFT
How it was run: as §1

[4] = molecular target: T4, TYK2 (aa 871-1187, catalytic domain, GST-tag) (Homo sapiens, UniProt P29597); test: JAK kinase assay (HTRF, phosphorylation of TK substrate-biotin), TYK2; conditions: HTRF assay, ATP at Km (13 μM); read-out: TYK2 kinase inhibitory activity (EC50 indicator)
T4 construct: JAK1 (aa 850-1154) and TYK2 (aa 871-1187) are expressed with an N-terminally fused GST-tag; GST (N); purchased Carna Biosciences, Inc; host or cells: baculovirus expression system
T4 sequence (P29597 871-1187): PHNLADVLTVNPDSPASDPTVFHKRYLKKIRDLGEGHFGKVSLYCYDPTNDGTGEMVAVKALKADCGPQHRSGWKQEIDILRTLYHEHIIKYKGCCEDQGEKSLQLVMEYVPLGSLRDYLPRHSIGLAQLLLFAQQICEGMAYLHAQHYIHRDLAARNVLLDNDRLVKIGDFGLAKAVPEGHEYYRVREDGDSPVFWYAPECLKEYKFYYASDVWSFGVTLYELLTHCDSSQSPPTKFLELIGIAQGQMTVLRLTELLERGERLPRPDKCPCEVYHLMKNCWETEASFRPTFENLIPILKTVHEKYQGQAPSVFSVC
How it was run: as §1

| Structure (SMILES) | EC50 [1] | EC50 [2] | EC50 [3] | EC50 [4] |
| --- | --- | --- | --- | --- |
| CCCNS(=O)(=O)c1ccc(C(=O)N2CCN(c3ncnc4[nH]ccc34)CC23CC3)cc1 [Example 377, N-Propyl-4-[7-(7H-pyrrolo[2,3-d]pyrimidin-4-yl)-4,7-diaza-spiro[2.5]octane-4-carbonyl]-benzenesulfonamide] | < 100 nM | < 100 nM | < 100 nM | 100 to 500 nM |
| COc1cc(C(=O)N2CCN(c3ncnc4[nH]ccc34)CC23CC3)ccc1S(N)(=O)=O [Example 378, 2-Methoxy-4-[7-(7H-pyrrolo[2,3-d]pyrimidin-4-yl)-4,7-diaza-spiro[2.5]octane-4-carbonyl]-benzenesulfonamide] | < 100 nM | < 100 nM | < 100 nM | < 100 nM |
| Cc1cc(S(N)(=O)=O)ccc1C(=O)N1CCN(c2ncnc3[nH]ccc23)CC12CC2 [Example 379, 3-Methyl-4-[7-(7H-pyrrolo[2,3-d]pyrimidin-4-yl)-4,7-diaza-spiro[2.5]octane-4-carbonyl]-benzenesulfonamide] | < 100 nM | < 100 nM | < 100 nM | 100 to 500 nM |
| N#Cc1ccc(C(=O)C(=O)N2CCN(c3ncnc4[nH]ccc34)CC23CC3)cc1 [Example 381, 4-{2-Oxo-2-[7-(7H-pyrrolo[2,3-d]pyrimidin-4-yl)-4,7-diaza-spiro[2.5]oct-4-yl]-acetyl}-benzonitrile] | < 100 nM | < 100 nM | 100 to 500 nM | 100 to 500 nM |
| NS(=O)(=O)c1ccc(CCC(=O)N2CCN(c3ncnc4[nH]ccc34)CC23CC3)cc1 [Example 383, 4-{3-Oxo-3-[7-(7H-pyrrolo[2,3-d]pyrimidin-4-yl)-4,7-diaza-spiro[2.5]oct-4-yl]-propyl}-benzenesulfonamide] | < 100 nM | < 100 nM | < 100 nM | < 100 nM |

Now from value to compound:

| EC50 [1] | EC50 [2] | EC50 [3] | EC50 [4] | Structure (SMILES) |
| --- | --- | --- | --- | --- |
| < 100 nM | < 100 nM | < 100 nM | 100 to 500 nM | CNS(=O)(=O)c1cc(C(=O)N2CCN(c3ncnc4[nH]ccc34)CC23CC3)sc1C [Example 375, 2-Methyl-5-[7-(7H-pyrrolo[2,3-d]pyrimidin-4-yl)-4,7-diaza-spiro[2.5]octane-4-carbonyl]-thiophene-3-sulfonic acid methylamide] |
| < 100 nM | < 100 nM | < 100 nM | 100 to 500 nM | CNS(=O)(=O)c1csc(C(=O)N2CCN(c3ncnc4[nH]ccc34)CC23CC3)c1C [Example 376, 4-Methyl-5-[7-(7H-pyrrolo[2,3-d]pyrimidin-4-yl)-4,7-diaza-spiro[2.5]octane-4-carbonyl]-thiophene-3-sulfonic acid methylamide] |
| < 100 nM | < 100 nM | < 100 nM | < 100 nM | Cc1cc(C(=O)N2CCN(c3ncnc4[nH]ccc34)CC23CC3)ccc1S(N)(=O)=O [Example 380, 2-Methyl-4-[7-(7H-pyrrolo[2,3-d]pyrimidin-4-yl)-4,7-diaza-spiro[2.5]octane-4-carbonyl]-benzenesulfonamide] |
| < 100 nM | < 100 nM | > 500 nM | 100 to 500 nM | CS(=O)(=O)c1ccc(C(=O)N2CCN(c3ncnc4[nH]ccc34)CC23CC3)c(Cl)c1 [Example 382, (2-Chloro-4-methanesulfonyl-phenyl)-[7-(7H-pyrrolo[2,3-d]pyrimidin-4-yl)-4,7-diaza-spiro[2.5]oct-4-yl]-methanone] |
| < 100 nM | < 100 nM | < 100 nM | < 100 nM | COc1cc(C(=O)N2CCN(c3ncnc4[nH]ccc34)CC23CC3)cs1 [Example 384, (5-Methoxy-thiophen-3-yl)-[7-(7H-pyrrolo[2,3-d]pyrimidin-4-yl)-4,7-diaza-spiro[2.5]oct-4-yl]-methanone] |
| < 100 nM | < 100 nM | < 100 nM | < 100 nM | O=C(c1cc(O)cs1)N1CCN(c2ncnc3[nH]ccc23)CC12CC2 [Example 385, (4-Hydroxy-thiophen-2-yl)-[7-(7H-pyrrolo[2,3-d]pyrimidin-4-yl)-4,7-diaza-spiro[2.5]oct-4-yl]-methanone] |
